By EC50 is commonly meant the concentration giving half of the maximal effect. Read a high EC50 as a need for much substance.

The record followed here is US20220409593A1 (ARKUDA THERAPEUTICS, priority 2019, published 2022).

The assay has as its system secreted mouse PGRN. Kind of assay: progranulin induction cellular assay (PGRN assay, ELISA-based readout). The settings on record: progranulin secreted into cell culture medium, cells named in method: mouse primary microglia, primary cortical neurons, BV-2. As for the experimental part:
Cellular Assays: To measure the efficacy of compounds, a progranulin induction cellular assay in mouse primary microglia (pMG), primary cortical neurons, and BV-2 cell lines is used. BV-2 cells are split the day before plating into a 96well plate format at approximately 80%. Cells should be plated the day before and allowed for 1 hour attachment period and for 16 hour incubation. Levels of progranulin secreted into the cell culture medium or retained in the cell lysate can be quantified using an ELISA-based readout and measurement of secreted mouse PGRN in the medium was assessed by the methodology published by Ghidoni et al. 2012. Standard ELISA kits to measure PGRN are available from vendors such as Adipogen, R&D, and Biovendor.
Table D below presents the results of a PGRN assay as described above.
A general note: In an ELISA, binding on a coated surface is turned into a signal by an enzyme label.

Where only a bound is given, the exact number is not on record here.

Where the note is “Mus musculus”, `N[C@H]1C[C@@]2(CN=C(N3CCc4ccccc4[C@@H]3c3ccc(F)cc3)O2)C1` [Compound 3061, (S)-6-(1-(4-fluorophenyl)-3,4-dihydroisoquinolin-2(1H)-yl)-5-oxa-7-azaspiro[3.4]oct-6-en-2-amine] showed a concentration for a half-maximal effect (EC50) of 0.115 µM. Same read-out and setting: the figure for `Fc1ccc([C@H]2c3ccccc3CCN2C2=N[C@@H]([C@H]3CCNC3)CO2)cc1` (single isomer, unassigned) [Compound 3073] is 0.0669 µM; for `Fc1ccc([C@H]2c3ccccc3CCN2C2=NC[C@H](C3(F)CNC3)O2)cc1` (single isomer, unassigned) [Compound 3155] it is 0.192 µM; for `CN(C)[C@@H]1CC[C@@]2(CN=C(N3CCc4ccccc4[C@@H]3c3ccc(F)cc3)O2)C1` (single isomer, unassigned) [Compound 3163] it is 0.237 µM.

Regarding `N[C@H]1C[C@@]2(COC(N3CCc4ccccc4[C@@H]3c3ccc(F)cc3)=N2)C1` [Compound 3162], the EC50 (Mus musculus) was 0.639 µM.

Take `Fc1ccc([C@H]2c3ccccc3CCN2C2=NC[C@@H](C3CNC3)O2)cc1` (single isomer, unassigned) [Compound 3070]: for the setting “Mus musculus”, the EC50 was found to be 0.0966 µM. In the case of `Fc1ccc([C@H]2c3ccccc3CCN2C2=N[C@@H](C3(F)CNC3)CO2)cc1` (single isomer, unassigned) [Compound 3156], the EC50 (Mus musculus) was found to be 0.0998 µM. Regarding `Fc1ccc([C@H]2c3ccccc3CCN2C2=N[C@]3(CO2)CN2CCC3CC2)cc1` (single isomer, unassigned) [Compound 3057A], the EC50 (Mus musculus) was 0.231 µM.

`Fc1ccc([C@H]2c3ccccc3CCN2C2=N[C@@H]([C@@H]3CCNC3)CO2)cc1` (single isomer, unassigned) [Compound 3074] gave an EC50 (Mus musculus) of 0.338 µM. Same read-out and setting: the figure for `Fc1ccc([C@H]2c3ccccc3CCN2C2=NCC(C3CNC3)O2)cc1` (single isomer, unassigned) [Compound 3069] is 0.109 µM; for `Fc1ccc([C@H]2c3ccccc3CCN2C2=NC[C@@]3(CCNC3)O2)cc1` [Compound 3049] it is 0.019 µM; for `Fc1ccc([C@H]2c3ccccc3CCN2C2=NO[C@@]3(CN4CCC3(F)CC4)O2)cc1` (single isomer, unassigned) [Compound 3034] it is 0.45 µM.

`CN1CCC[C@@]2(CN=C(N3CCc4ccccc4[C@H]3c3cc(F)cc(F)c3)O2)C1` (single isomer, unassigned) [Compound 3013] showed an EC50 (Mus musculus) of 1.59 µM.

`NC[C@H]1C[C@]2(CN=C(N3CCc4ccccc4[C@@H]3c3ccc(F)cc3)O2)C1` (single isomer, unassigned) [Compound 3161] gave an EC50 (Mus musculus) of 0.206 µM. `N[C@H]1CC[C@@]2(COC(N3CCc4ccccc4[C@@H]3c3ccc(F)cc3)=N2)C1` [Compound 3084, (5S,7S)-2-((S)-1-(4-fluorophenyl)-3,4-dihydroisoquinolin-2(1H)-yl)-3-oxa-1-azaspiro[4.4]non-1-en-7-amine] showed a 50% effective concentration (EC50) (Mus musculus) of 0.204 µM.

The molecule `Fc1ccc([C@H]2c3ccccc3CCN2C2=NC[C@]3(CNC[C@@H]3F)O2)cc1` (single isomer, unassigned) [Compound 3169] had an EC50 (Mus musculus) of 0.2 µM. Molecule `Fc1ccc([C@H]2c3ccccc3CCN2C2=NC[C@]3(CCNC3)O2)cc1` (single isomer, unassigned) [Compound 3050] returned a concentration giving a half-maximal response (EC50) (Mus musculus) of 0.015 µM. For the setting “Mus musculus”, `N[C@@H]1CC[C@@]2(CN=C(N3CCc4ccccc4[C@@H]3c3ccc(F)cc3)O2)C1` (single isomer, unassigned) [Compound 3081] showed a 50% effective concentration (EC50) of 0.119 µM. On to `CN1CCC[C@]2(CN=C(N3CCc4ccccc4[C@@H]3c3cccc(F)c3)O2)C1` (single isomer, unassigned) [Compound 3009], for which the EC50 was 7.02 µM. For the molecule `N[C@H]1CC[C@]2(CN=C(N3CCc4ccccc4[C@@H]3c3ccc(F)cc3)O2)C1` (single isomer, unassigned) [Compound 3078], the EC50 (Mus musculus) is 0.127 µM.

For `N[C@H]1CCC[C@]12CN=C(N1CCc3ccccc3[C@@H]1c1ccc(F)cc1)O2` (single isomer, unassigned) [Compound 3086], the EC50 (Mus musculus) worked out at 0.757 µM.

`CN1CCC[C@]2(CN=C(N3CCc4ccccc4[C@H]3c3cc(F)cc(F)c3)O2)C1` (single isomer, unassigned) [Compound 3012] displayed an EC50 (Mus musculus) of more than 10 µM. `CN1CCC[C@]2(CN=C(N3CCc4ccccc4[C@H]3c3ccc(F)c(F)c3)O2)C1` (stereo in doubt) [Compound 3031] returned a half-maximal effective concentration (EC50) (Mus musculus) of 4.31 µM. In turn, `Fc1ccc([C@@H]2c3ccccc3CCN2C2=NC[C@]3(CN4CCC3CC4)O2)cc1F` (stereo in doubt) [Compound 3027] registered an EC50 (Mus musculus) of 2.08 µM. `Fc1cc(F)cc([C@H]2c3ccccc3CCN2C2=NC[C@@]3(CN4CCC3CC4)O2)c1` (racemic) [Compound 3036] showed an EC50 (Mus musculus) of 3.75 µM. Same read-out and setting: the figure for `Fc1ccc([C@H]2c3ccccc3CCN2C2=N[C@]3(CCCNC3)CO2)cc1` (single isomer, unassigned) [Compound 3053] is 0.25 µM. Regarding `CN1CCC[C@@H]([C@H]2CN=C(N3CCc4ccccc4[C@@H]3c3ccc(F)cc3)O2)C1` (single isomer, unassigned) [Compound 3151], a half-maximal effect (Mus musculus) (EC50) was put at 3.1 µM. The same measure, in the same setting: the figure for `Fc1ccc([C@H]2c3ccccc3CCN2C2=NC3(CCNCC3)CO2)cc1` [Compound 3056, (S)-2-(1-(4-fluorophenyl)-3,4-dihydroisoquinolin-2(1H)-yl)-3-oxa-1,8-diazaspiro[4.5]dec-1-ene] is 0.11 µM; for `Fc1ccc([C@H]2c3ccccc3CCN2C2=NC[C@@H](C3CCNCC3)O2)cc1` [Compound 3067] it is 0.309 µM; for `CN1CCC2(CC1)CN=C(N1CCc3ccccc3[C@@H]1c1ccc(F)cc1)O2` [Compound 3059, (S)-2-(1-(4-fluorophenyl)-3,4-dihydroisoquinolin-2(1H)-yl)-8-methyl-1-oxa-3,8-diazaspiro[4.5]dec-2-ene] it is 0.11 µM. As to `O=C1N[C@@]2(CCCNC2)N=C1N1CCc2ccccc2[C@@H]1c1ccc(F)cc1` [Compound 3148], the 50% effective concentration (EC50) (Mus musculus) was determined as 0.0853 µM. For the setting “Mus musculus”, `Fc1ccc([C@H]2c3ccccc3CCN2C2=NC[C@]3(CN4CCC3CC4)O2)cc1` (single isomer, unassigned) [Compound 3000] came in with an EC50 of 0.25 µM.

Turning to `CN1CCC2(CC1)COC(N1CCc3ccccc3[C@@H]1c1ccc(F)cc1)=N2` [Compound 3058, (S)-2-(1-(4-fluorophenyl)-3,4-dihydroisoquinolin-2(1H)-yl)-8-methyl-3-oxa-1,8-diazaspiro[4.5]dec-1-ene], under “Mus musculus”, the EC50 is 0.38 µM. On to `CN1CCC[C@@]2(CN=C(N3CCc4ccccc4[C@@H]3c3cc(F)cc(F)c3)O2)C1` (single isomer, unassigned) [Compound 3011], for which the EC50 (Mus musculus) came to 7.64 µM. Still for that read-out and setting: then `Fc1ccc([C@H]2c3ccccc3CCN2C2=NC[C@@]3(CCCNC3)O2)cc1` [Compound 3051], with 0.98 µM. Take `c1ccc([C@H]2c3ccccc3CCN2C2=NC[C@@]3(CN4CCC3CC4)O2)cc1` (single isomer, unassigned) [Compound 3041]: the EC50 (Mus musculus) is 1.72 µM. Take `Fc1ccc([C@H]2c3ccccc3CCN2C2=NC[C@H](C34CCN(CC3)CC4)O2)cc1` [Compound 3047, 2-((S)-1-(4-fluorophenyl)-3,4-dihydroisoquinolin-2(1H)-yl)-5-(quinuclidin-4-yl)-4,5-dihydrooxazole]: the EC50 (Mus musculus) is more than 10 µM. In the case of `Fc1ccc([C@H]2c3ccccc3CCN2C2=NC[C@@]3(CNC[C@@H]3F)O2)cc1` (single isomer, unassigned) [Compound 3170], a half-maximal response (Mus musculus) (EC50) required 0.538 µM.

`Fc1ccc([C@H]2c3ccccc3CCN2C2=NC[C@@H]([C@H]3CCNC3)O2)cc1` (single isomer, unassigned) [Compound 3065]: the EC50 (Mus musculus) stood at 0.244 µM. `Fc1ccc([C@H]2c3ccccc3CCN2C2=NC[C@@]3(CCN(CC(F)(F)F)C3)O2)cc1` [Compound 3172, (S)-2-((S)-1-(4-fluorophenyl)-3,4-dihydroisoquinolin-2(1H)-yl)-7-(2,2,2-trifluoroethyl)-1-oxa-3,7-diazaspiro[4.4]non-2-ene]: the half-maximal effective concentration (EC50) (Mus musculus) is 1.52 µM.

Where the note is “Mus musculus”, `CN1CCCC2(COC(N3CCc4ccccc4[C@@H]3c3ccc(F)cc3)=N2)C1` (stereo partly shown) [Compound 3055] had an EC50 of 1.77 µM. For the setting “Mus musculus”, `Fc1ccc([C@H]2c3ccccc3CCN2C2=NC[C@@H](C34CCN(CC3)CC4)O2)cc1` [Compound 3048, 2-((S)-1-(4-fluorophenyl)-3,4-dihydroisoquinolin-2(1H)-yl)-5-(quinuclidin-4-yl)-4,5-dihydrooxazole] displayed an EC50 of 0.11 µM. Molecule `O=C1N[C@]2(CCCNC2)N=C1N1CCc2ccccc2[C@@H]1c1ccc(F)cc1` [Compound 3147] displayed an EC50 (Mus musculus) of 0.0501 µM. Turning to `Fc1ccc([C@H]2c3ccccc3CCN2C2=NC[C@H]([C@@H]3CCNC3)O2)cc1` (single isomer, unassigned) [Compound 3063], a half-maximal effect (Mus musculus) (EC50) was put at 0.208 µM. As to `Fc1cc(F)cc([C@@H]2c3ccccc3CCN2C2=NC[C@@]3(CN4CCC3CC4)O2)c1` (stereo in doubt) [Compound 3038], the response (Mus musculus) was half-maximal at 3.91 µM (EC50).

On to `Fc1ccc([C@H]2c3ccccc3CCN2C2=NC[C@@H]([C@@H]3CCNC3)O2)cc1` (single isomer, unassigned) [Compound 3066], for which, under “Mus musculus”, the EC50 was found to be 0.055 µM. Still for that read-out and setting: the figure for `CN1CCC(F)[C@]2(CN=C(N3CCc4ccccc4[C@@H]3c3ccc(F)cc3)O2)C1` (single isomer, unassigned) [Compound 3046] is 3.37 µM.

As to `Fc1ccc([C@H]2c3ccccc3CCN2C2=N[C@@]3(CCCNC3)CO2)cc1` (single isomer, unassigned) [Compound 3054], the EC50 (Mus musculus) turned out to be 0.11 µM. Still for that read-out and setting: then `CN1CCC[C@]2(CN=C(N3CCc4ccccc4[C@@H]3c3cc(F)cc(F)c3)O2)C1` (single isomer, unassigned) [Compound 3010], with 6.39 µM.
